{
  "source": "patent US7084261B2",
  "about": "“Pegylated T1249 polypeptide” (Hoffmann-La Roche Inc., priority 2002, dated 2006)",
  "key": {"HIV-1": {"system": "HIV-1", "text": "The number of stained nuclei can thus be interpreted as equal to the number of infectious virions in the challenge inoculum if there is only one round of infection prior to staining."}, "[1]": {"test": "Pharmacokinetics of T1249 in rats after a single subcutaneous or intravenous dose", "assay_type": "in vivo", "conditions": "both sexes, Sprague-Dawley, blood, rat; for half-life: read-out: T1/2terminal (converted)", "protocol": "Each treatment group, consisted of 9 Sprague-Dawley rats (Charles River Laboratories, Wilmington, Del.) per sex. Each member of the group received a single subcutaneous or intravenous dose of T1249 (batch 2 referenced in Example 9/Table 5). […]\nBlood samples were collected from test animals over a twelve hour time period from three rats per sex per group at each time point. The time points were 0.5, 1, 2, 4, 6, 8,10, and 12 hours after dose administration.\nThe blood samples were analyzed using a T1249 PcAb ECLIA assay. T1249 PcAb ECLIA is a noncompetitive, two site immunoassay that utilizes two different preparations of rabbit PcAb specific for T1249. In this assay, T1249 determinations are preformed by first incubating the diluted test sample in a tube that also contains biotin-labeled antibody (preparation A) and ruthenium-labeled antibody (preparation B). In the next step, streptavidin-coated magnetic beads are added to the tube in order to capture the antibody-peptide-antibody immune complexes (sandwiches) that have formed. The mixture is then pumped through a flow-cell in the analyzer, after which an electrical current is applied to […] adjacent to the flow-cell. Light is generated through cyclical oxidation-reduction reactions between the ruthenium metal ions that are conjugated to the detector antibodies and tripropylamine ions that are present in excess in the assay buffer. This light energy is the measured end-point. A sample containing an appreciable amount of T1249 presents a higher signal compared to a sample containing little or no T1249."}},
  "note": "Read-outs that look alike come from different tables or passages of the source.",
  "data": [
    {"smiles": "CC[C@H](C)[C@H](NC(=O)[C@H](CCC(N)=O)NC(=O)[C@H](C)NC(=O)[C@H](CCC(N)=O)NC(=O)[C@H](CCC(=O)O)NC(=O)[C@H](CC(C)C)NC(=O)[C@H](CC(C)C)NC(=O)[C@H](C)NC(=O)[C@@H](NC(=O)[C@@H](NC(=O)[C@H](CCCCN)NC(=O)[C@H](CCC(N)=O)NC(=O)[C@H](CCC(=O)O)NC(=O)[C@H](Cc1c[nH]c2ccccc12)NC(=O)[C@H](CCC(=O)O)NC(=O)[C@H](CCC(N)=O)NC(=O)[C@@H](N)Cc1c[nH]c2ccccc12)[C@@H](C)CC)[C@@H](C)O)C(=O)N[C@@H](CCC(N)=O)C(=O)N[C@@H](CCC(N)=O)C(=O)N[C@@H](CCC(=O)O)C(=O)N[C@@H](CCCCN)C(=O)N[C@@H](CC(N)=O)C(=O)N[C@@H](CCC(=O)O)C(=O)N[C@@H](Cc1ccc(O)cc1)C(=O)N[C@@H](CCC(=O)O)C(=O)N[C@@H](CC(C)C)C(=O)N[C@@H](CCC(N)=O)C(=O)N[C@@H](CCCCN)C(=O)N[C@@H](CC(C)C)C(=O)N[C@@H](CC(=O)O)C(=O)N[C@@H](CCCCN)C(=O)N[C@@H](Cc1c[nH]c2ccccc12)C(=O)N[C@@H](C)C(=O)N[C@@H](CO)C(=O)N[C@@H](CC(C)C)C(=O)N[C@@H](Cc1c[nH]c2ccccc12)C(=O)N[C@@H](CCC(=O)O)C(=O)N[C@@H](Cc1c[nH]c2ccccc12)C(=O)N[C@@H](Cc1ccccc1)C(N)=O", "note": "[Example T1249]", "values": [
      {"measurement": "IC50", "setting": "HIV-1; 50% reduction in infectious virus titer", "value": 0.003, "unit": "µg/mL"},
      {"measurement": "IC90", "setting": "HIV-1; 90% reduction in infectious titer", "value": 0.023, "unit": "µg/mL"},
      {"measurement": "AUC(0-inf)", "setting": "[1]; 1.2 mg/kg (SC)", "value": 27600, "unit": "ng·h/mL"},
      {"measurement": "AUC(0-t)", "setting": "[1]; 1.2 mg/kg (SC)", "value": 27000, "unit": "ng·h/mL"},
      {"measurement": "Cmax", "setting": "[1]; 1.2 mg/kg (SC)", "value": 6370, "unit": "ng/mL"},
      {"measurement": "Tmax", "setting": "[1]; 1.2 mg/kg (SC)", "value": 1.09, "unit": "h"},
      {"measurement": "half-life", "setting": "[1]; 1.2 mg/kg (SC)", "value": 2.02, "unit": "h"},
      {"measurement": "AUC(0-inf)", "setting": "[1]; 1.5 mg/kg (IV)", "value": 47100, "unit": "ng·h/mL"},
      {"measurement": "AUC(0-t)", "setting": "[1]; 1.5 mg/kg (IV)", "value": 45600, "unit": "ng·h/mL"},
      {"measurement": "Cmax", "setting": "[1]; 1.5 mg/kg (IV)", "value": 15700, "unit": "ng/mL"},
      {"measurement": "half-life", "setting": "[1]; 1.5 mg/kg (IV)", "value": 2.46, "unit": "h"},
      {"measurement": "AUC(0-inf)", "setting": "[1]; 5.0 mg/kg (IV)", "value": 120000, "unit": "ng·h/mL"},
      {"measurement": "AUC(0-t)", "setting": "[1]; 5.0 mg/kg (IV)", "value": 118000, "unit": "ng·h/mL"},
      {"measurement": "Cmax", "setting": "[1]; 5.0 mg/kg (IV)", "value": 46300, "unit": "ng/mL"},
      {"measurement": "half-life", "setting": "[1]; 5.0 mg/kg (IV)", "value": 1.86, "unit": "h"},
      {"measurement": "AUC(0-inf)", "setting": "[1]; 15 mg/kg (SC)", "value": 110000, "unit": "ng·h/mL"},
      {"measurement": "AUC(0-t)", "setting": "[1]; 15 mg/kg (SC)", "value": 107000, "unit": "ng·h/mL"},
      {"measurement": "Cmax", "setting": "[1]; 15 mg/kg (SC)", "value": 21500, "unit": "ng/mL"},
      {"measurement": "Tmax", "setting": "[1]; 15 mg/kg (SC)", "value": 1.88, "unit": "h"},
      {"measurement": "half-life", "setting": "[1]; 15 mg/kg (SC)", "value": 2, "unit": "h"}
    ]}
  ]
}
